From ChEMBL document CHEMBL1201862, “PubChem BioAssay data set” (2004)
Each block holds one compound with its values, some of them ahead of it. Calls of active or inactive are those of the source.

Legend:
[1] = HEK-293T viability loss, compound-treated – cell-based, uHTS hits, cytotoxicity control for B/T-cell NF-kB inhibitor project, dose response (AID 489019); assay type: functional;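 further: IC50 reflects cytotoxicity as loss of cell viability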
[2] = molecular target: T1, Sentrin-specific protease 7 (Homo sapiens, UniProt Q9BQF6); assay type: functional;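 further: Luminescence-based dose-response confirmation of ultra-high-throughput screening hits, measuring inhibition of SENP7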
T1 sequence (Q9BQF6 whole entry): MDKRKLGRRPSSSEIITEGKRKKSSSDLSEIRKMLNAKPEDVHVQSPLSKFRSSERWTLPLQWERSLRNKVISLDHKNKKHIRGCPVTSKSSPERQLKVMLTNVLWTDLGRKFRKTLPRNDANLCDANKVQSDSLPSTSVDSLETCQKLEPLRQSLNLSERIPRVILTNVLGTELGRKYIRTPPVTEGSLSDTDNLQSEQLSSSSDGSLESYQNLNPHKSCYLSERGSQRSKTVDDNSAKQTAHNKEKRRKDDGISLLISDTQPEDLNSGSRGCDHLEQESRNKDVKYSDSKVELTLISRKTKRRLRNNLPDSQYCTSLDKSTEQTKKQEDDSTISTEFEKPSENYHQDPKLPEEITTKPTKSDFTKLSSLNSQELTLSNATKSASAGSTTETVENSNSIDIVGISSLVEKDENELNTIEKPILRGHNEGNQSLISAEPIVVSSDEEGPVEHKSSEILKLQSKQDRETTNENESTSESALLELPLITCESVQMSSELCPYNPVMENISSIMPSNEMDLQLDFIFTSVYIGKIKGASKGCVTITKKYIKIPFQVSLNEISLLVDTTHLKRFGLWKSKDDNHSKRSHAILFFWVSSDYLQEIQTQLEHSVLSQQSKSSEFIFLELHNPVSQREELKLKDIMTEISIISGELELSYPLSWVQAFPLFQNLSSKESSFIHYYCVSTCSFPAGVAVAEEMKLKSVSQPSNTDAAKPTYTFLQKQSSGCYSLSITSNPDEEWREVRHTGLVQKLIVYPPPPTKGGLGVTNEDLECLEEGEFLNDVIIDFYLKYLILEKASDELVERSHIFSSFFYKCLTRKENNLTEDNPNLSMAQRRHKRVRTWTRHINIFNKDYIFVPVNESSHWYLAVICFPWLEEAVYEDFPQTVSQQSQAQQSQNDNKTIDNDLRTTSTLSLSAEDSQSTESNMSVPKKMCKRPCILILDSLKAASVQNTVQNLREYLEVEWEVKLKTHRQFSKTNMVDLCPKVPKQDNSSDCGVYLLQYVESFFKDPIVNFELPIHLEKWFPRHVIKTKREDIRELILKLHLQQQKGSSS

[3] = molecular target: Serine/threonine-protein kinase PLK4 (Homo sapiens, UniProt O00444); assay type: functional;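 further: PLK4 measured as one member of a kinome-wide kinase profiling panel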
Wee1-like protein kinase = Wee1-like protein kinase (Homo sapiens, UniProt P30291); experiment: Navigating the Kinome. Panel member name: WEE1; assay type: functional
Chain of Wee1-like protein kinase (P30291 whole entry): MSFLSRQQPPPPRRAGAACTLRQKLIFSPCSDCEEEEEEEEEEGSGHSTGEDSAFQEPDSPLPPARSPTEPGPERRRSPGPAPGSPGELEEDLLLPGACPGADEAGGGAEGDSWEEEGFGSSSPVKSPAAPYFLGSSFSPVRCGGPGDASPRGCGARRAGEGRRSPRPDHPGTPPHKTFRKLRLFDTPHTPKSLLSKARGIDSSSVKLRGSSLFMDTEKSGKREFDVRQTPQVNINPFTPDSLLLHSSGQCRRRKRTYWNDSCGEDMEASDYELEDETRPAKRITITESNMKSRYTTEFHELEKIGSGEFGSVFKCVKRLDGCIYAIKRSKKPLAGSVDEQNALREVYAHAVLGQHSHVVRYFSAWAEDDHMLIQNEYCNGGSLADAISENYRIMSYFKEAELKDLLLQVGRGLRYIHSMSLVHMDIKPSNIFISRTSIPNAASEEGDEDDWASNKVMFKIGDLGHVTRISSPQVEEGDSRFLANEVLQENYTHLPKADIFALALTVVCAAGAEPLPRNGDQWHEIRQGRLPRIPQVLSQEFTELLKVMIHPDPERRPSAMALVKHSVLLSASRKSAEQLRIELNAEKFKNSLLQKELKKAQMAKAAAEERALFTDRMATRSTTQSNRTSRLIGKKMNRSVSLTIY

[4] = molecular target: cAMP-dependent protein kinase catalytic subunit PRKX (Homo sapiens, UniProt P51817); assay type: functional
Chain of cAMP-dependent protein kinase catalytic subunit PRKX (P51817 whole entry): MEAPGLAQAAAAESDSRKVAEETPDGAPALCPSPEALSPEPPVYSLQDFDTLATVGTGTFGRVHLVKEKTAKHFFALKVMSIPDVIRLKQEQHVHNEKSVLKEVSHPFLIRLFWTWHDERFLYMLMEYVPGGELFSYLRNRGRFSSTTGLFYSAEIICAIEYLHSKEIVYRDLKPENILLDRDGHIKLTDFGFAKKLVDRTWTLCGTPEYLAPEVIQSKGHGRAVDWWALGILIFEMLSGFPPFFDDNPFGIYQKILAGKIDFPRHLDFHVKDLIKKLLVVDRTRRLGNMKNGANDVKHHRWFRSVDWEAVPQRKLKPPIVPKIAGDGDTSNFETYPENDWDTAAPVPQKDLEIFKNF

[5] = molecular target: Homeodomain-interacting protein kinase 4 (Homo sapiens, UniProt Q8NE63); assay type: functional
Chain of Homeodomain-interacting protein kinase 4 (Q8NE63 whole entry): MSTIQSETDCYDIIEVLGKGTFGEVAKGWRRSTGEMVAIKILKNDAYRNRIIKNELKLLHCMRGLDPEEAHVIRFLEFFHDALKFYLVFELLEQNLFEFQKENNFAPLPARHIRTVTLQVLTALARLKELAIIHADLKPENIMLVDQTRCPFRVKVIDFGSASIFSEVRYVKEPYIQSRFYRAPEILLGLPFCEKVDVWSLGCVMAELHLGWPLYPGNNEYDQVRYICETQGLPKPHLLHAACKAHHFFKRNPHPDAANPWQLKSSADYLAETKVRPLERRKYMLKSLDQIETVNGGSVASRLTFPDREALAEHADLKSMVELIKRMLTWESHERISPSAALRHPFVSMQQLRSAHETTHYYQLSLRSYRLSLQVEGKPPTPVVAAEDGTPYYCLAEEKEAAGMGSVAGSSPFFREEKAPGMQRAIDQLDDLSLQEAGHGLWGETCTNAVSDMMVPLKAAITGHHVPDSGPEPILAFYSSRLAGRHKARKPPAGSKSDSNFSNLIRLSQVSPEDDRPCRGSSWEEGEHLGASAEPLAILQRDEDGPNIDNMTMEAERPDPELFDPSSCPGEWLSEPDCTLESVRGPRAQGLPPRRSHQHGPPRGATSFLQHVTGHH

[6] = molecular target: Fibroblast growth factor receptor 3 (Homo sapiens, UniProt P22607); assay type: functional
Chain of Fibroblast growth factor receptor 3 (P22607 whole entry): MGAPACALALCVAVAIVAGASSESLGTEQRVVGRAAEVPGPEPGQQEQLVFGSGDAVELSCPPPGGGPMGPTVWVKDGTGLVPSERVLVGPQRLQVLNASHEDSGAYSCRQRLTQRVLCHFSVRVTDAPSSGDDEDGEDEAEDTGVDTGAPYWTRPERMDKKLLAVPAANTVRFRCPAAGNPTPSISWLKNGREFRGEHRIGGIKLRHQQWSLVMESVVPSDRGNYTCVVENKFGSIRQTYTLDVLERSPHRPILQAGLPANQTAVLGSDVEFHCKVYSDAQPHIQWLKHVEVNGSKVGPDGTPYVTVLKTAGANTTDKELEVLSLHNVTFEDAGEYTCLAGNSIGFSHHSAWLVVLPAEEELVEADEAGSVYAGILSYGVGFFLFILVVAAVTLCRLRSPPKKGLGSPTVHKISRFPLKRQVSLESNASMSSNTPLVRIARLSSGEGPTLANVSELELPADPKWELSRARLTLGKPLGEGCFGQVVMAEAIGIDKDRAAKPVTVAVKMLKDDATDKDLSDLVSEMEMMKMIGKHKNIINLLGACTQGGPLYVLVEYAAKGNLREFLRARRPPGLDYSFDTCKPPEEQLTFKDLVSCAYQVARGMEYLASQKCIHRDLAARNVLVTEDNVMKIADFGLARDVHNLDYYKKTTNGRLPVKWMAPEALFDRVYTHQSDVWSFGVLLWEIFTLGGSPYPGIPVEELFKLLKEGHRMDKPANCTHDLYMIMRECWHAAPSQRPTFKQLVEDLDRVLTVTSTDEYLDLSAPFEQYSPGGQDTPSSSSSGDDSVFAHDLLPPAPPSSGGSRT

[7] = molecular target: cAMP-dependent protein kinase catalytic subunit alpha (Homo sapiens, UniProt P17612); assay type: functional
[8] = fluconazole-exposed Candida albicans growth modulators – fluorescence, retest, confirmation (AID 2467); assay type: functional, cell-based
[9] = Trypanosoma cruzi growth suppression in host cells – NIH3T3 host cells, beta-gal luminescence, confirmation (AID 2044); assay type: functional, cell-based;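 further: intracellular parasites grown in NIH/3T3 mouse fibroblasts as host cells; luminescent beta-galactosidase reporter signal from transgenic T. cruzi replicating inside host cells; inhibitors lower the luminescence signal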
[10] = Luminescence-based dose response cell-based high throughput screening assay for cytotoxic compounds using the IEC-6 intestinal epithelial cell line. [Related pubchem assays: 1858 (Summary AID.), 1825 (Counterscreen.), 1907 (Confirmation screen.)]; assay type: functional
[11] = NIH3T3 cell viability loss – ATP luminescence, mouse fibroblasts, counter-screen, dose response (AID 2010); assay type: functional, cell-based;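 further: cells exposed to compound for about 90 hours before reading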
[12] = molecular target: T2, Apoptotic protease-activating factor 1 (Homo sapiens, UniProt O14727); assay type: functional
T2 sequence (O14727 whole entry): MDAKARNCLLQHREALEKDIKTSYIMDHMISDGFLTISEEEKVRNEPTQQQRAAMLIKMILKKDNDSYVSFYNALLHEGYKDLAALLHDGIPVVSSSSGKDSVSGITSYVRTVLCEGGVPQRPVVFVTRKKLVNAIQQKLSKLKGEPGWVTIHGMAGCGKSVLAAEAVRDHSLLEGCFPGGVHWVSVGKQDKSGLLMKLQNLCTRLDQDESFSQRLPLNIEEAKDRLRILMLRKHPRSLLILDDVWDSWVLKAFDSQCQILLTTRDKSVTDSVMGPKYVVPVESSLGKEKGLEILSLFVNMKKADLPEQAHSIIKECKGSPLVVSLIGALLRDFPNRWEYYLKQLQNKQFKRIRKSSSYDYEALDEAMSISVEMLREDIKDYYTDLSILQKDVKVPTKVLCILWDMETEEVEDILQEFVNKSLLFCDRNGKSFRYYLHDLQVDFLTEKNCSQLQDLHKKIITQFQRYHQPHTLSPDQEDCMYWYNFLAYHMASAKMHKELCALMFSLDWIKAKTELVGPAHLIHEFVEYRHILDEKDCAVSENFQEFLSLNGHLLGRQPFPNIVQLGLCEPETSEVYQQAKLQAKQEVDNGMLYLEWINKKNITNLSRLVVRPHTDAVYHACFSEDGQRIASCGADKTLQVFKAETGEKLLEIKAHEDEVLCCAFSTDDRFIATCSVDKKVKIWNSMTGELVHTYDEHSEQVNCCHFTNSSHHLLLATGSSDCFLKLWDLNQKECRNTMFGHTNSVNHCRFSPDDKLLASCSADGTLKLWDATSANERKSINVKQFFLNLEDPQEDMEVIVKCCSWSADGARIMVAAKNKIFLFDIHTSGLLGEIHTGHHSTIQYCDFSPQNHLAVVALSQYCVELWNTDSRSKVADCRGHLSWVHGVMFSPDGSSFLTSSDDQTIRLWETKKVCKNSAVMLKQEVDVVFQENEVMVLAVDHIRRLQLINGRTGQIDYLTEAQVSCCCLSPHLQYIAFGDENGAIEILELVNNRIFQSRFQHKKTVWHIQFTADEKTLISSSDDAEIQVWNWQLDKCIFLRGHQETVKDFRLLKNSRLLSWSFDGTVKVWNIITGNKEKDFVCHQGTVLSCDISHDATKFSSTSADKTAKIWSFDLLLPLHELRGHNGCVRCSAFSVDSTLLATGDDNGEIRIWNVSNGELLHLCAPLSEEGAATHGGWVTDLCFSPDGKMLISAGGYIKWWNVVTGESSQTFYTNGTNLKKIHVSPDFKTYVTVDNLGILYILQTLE

[13] = molecular target: Ras and Rab interactor 1/Tyrosine-protein kinase ABL1 (Homo sapiens, UniProt P00519+Q13671); assay type: functional;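 further: biochemical TR-FRET dose-response test measuring inhibition of binding between Rin1 and Abl proteins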
Chain of Ras and Rab interactor 1/Tyrosine-protein kinase ABL1 (P00519 whole entry): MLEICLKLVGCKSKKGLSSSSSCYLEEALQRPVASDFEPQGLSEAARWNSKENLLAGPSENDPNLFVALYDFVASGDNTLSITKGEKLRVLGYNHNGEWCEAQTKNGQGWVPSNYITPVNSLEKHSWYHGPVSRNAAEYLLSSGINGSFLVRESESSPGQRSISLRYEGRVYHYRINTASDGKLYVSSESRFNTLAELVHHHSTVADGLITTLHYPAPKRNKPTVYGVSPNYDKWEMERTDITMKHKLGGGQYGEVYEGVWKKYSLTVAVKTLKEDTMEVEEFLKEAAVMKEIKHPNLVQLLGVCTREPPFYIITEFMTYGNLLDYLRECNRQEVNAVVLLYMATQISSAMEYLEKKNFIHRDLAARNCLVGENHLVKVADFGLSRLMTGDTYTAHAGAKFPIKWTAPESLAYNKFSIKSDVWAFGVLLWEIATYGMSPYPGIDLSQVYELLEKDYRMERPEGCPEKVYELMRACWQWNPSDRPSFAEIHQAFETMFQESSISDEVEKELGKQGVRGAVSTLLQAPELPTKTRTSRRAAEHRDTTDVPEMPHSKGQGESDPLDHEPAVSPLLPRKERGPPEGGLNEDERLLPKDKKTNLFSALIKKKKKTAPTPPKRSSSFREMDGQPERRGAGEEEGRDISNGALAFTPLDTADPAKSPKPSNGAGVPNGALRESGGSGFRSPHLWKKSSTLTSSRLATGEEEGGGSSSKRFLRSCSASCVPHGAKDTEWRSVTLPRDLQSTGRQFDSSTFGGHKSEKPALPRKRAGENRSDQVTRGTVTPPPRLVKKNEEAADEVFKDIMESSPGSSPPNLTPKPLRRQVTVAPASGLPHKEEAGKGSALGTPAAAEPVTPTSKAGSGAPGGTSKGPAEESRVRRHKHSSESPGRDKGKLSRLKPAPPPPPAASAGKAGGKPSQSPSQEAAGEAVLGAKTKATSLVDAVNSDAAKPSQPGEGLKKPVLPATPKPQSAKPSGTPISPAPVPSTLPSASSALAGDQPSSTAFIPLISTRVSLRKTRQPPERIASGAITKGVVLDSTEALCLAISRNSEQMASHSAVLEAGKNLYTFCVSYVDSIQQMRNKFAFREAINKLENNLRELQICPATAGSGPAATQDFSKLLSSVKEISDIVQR
Chain of Ras and Rab interactor 1/Tyrosine-protein kinase ABL1 (Q13671 whole entry): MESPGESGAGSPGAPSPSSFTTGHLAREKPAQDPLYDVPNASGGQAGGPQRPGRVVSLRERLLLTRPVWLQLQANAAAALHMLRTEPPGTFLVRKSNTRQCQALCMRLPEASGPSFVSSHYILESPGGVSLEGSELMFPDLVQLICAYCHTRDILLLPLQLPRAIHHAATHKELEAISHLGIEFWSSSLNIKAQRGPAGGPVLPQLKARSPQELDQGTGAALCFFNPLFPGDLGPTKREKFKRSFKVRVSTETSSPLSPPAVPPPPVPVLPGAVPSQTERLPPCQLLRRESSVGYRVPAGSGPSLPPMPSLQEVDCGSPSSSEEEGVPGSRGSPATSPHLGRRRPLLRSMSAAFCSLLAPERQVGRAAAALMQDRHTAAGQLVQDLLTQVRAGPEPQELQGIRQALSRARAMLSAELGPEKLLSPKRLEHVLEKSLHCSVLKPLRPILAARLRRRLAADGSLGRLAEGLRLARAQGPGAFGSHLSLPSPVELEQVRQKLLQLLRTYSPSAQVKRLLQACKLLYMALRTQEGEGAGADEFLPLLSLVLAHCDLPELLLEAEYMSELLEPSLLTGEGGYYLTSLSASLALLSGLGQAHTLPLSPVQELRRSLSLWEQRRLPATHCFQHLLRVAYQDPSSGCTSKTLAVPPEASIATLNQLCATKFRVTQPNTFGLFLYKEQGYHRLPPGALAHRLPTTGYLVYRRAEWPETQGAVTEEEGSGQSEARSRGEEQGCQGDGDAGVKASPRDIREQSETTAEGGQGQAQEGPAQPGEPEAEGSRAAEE

SMILES: CC(C)c1ccc(-c2nnn(CCC(=O)O)n2)cc1
IC50 [1]: > 80000 nM (inactive)
IC50 [2]: 7220 nM (active)

Ki [3]: 2000 nM (active)
Ki (Wee1-like protein kinase): > 2510 nM (inactive)
Ki [4]: > 3160 nM (inactive)
Ki [5]: 6310 nM (active)
Ki [6]: > 2000 nM (inactive)
Ki [7]: > 1260 nM (inactive)
SMILES: COc1cc2c(cc1Nc1nc(Nc3cccc(F)c3C(N)=O)c3cc[nH]c3n1)N(C(=O)CN(C)C)CC2

SMILES: CCn1nc(/C=C/c2ccccc2)nc2c(=O)n(C)c(=O)nc1-2
EC50 [8]: 630 nM (active)
EC50 [9]: 789 nM (active)
IC50 [10]: 335 nM (active)
EC50 [11]: 1020 nM (active)
IC50 [12]: 57.2 nM (active)
IC50 [13]: > 73500 nM (inactive)
